Assay results: US5962294A, “Compositions and methods for the identification and synthesis of sialyltransferases” (The Regents of the University of California, priority 1993, dated 1999)
Numbering of substitutions follows the chain as printed. Entries after “also recorded” stand apart in the source; their conditions may differ.

T1: ST3O (Sus scrofa, UniProt Q02745)
T1 sequence (Q02745 28-343 limits assumed): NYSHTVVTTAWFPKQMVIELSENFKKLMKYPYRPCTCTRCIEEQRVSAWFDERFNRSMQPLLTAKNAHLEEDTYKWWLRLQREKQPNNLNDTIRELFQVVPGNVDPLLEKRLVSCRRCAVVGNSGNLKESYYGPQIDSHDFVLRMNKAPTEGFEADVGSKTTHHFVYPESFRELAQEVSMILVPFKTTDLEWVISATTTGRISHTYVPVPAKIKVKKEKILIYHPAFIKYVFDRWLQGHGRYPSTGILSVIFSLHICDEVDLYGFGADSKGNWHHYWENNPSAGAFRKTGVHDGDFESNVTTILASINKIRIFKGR

T2: ST3N (Rattus norvegicus, UniProt Q02734)
T2 sequence (Q02734 29-374 limits assumed): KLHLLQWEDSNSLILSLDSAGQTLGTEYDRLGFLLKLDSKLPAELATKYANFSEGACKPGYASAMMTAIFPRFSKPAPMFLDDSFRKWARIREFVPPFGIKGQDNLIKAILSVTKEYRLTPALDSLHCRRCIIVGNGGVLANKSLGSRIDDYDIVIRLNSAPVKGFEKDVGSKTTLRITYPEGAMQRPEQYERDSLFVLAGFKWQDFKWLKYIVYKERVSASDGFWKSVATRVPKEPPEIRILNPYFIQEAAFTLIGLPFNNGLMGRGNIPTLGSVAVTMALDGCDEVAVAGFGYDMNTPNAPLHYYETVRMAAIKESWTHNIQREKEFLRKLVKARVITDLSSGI

T3: rat ST3N (Rattus norvegicus, UniProt Q02734)
T3 sequence (Q02734 29-374 limits assumed): T2 sequence (Q02734 29-374 limits assumed)

T4: ST3 (Homo sapiens, UniProt Q11206)
T4 construct: A truncated form of ST3, lacking the first 39 amino acids of the long-form open reading frame; made in house; host or cells: COS-1 (concentrated culture medium)
T4 sequence (Q11206 41-333): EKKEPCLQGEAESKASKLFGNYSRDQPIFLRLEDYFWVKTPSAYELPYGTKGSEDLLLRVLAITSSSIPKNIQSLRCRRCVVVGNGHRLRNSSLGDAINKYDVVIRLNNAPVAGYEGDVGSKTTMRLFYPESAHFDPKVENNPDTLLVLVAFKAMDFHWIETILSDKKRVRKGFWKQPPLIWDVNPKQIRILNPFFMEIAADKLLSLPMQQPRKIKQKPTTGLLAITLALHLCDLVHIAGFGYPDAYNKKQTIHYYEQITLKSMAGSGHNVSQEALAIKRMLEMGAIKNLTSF

B1: Form A: 48 kDa molecular weight form of the porcine liver α2,3 sialyltransferase (protein)
chain: TLKLLTLLVLFIFLTSFFLNYSHTVVTTAWFPKQMVIELSENFKKLMKYPYRPCTCTRCIEEQRVSAWFDERFNRSMQPLLTAKNAHLEEDTYKWWLRLQREKQPNNLNDTIRELFQVVPGNVDPLLEKRLVSCRRCAVVGNSGNLKESYYGPQIDSHDFVLRMNKAPTEGFEADVGSKTTHHFVYPESFRELAQEVSMILVPFKTTDLEWVISATTTGTISHTYVPVPAKIKVKKEKILIYHPAFIKYVFDRWLQGHGRYPSTGILSVIFSLHICDEVDLYGFGADSKGNWHHYWENNPSAGAFRKTGVHDGDFESNVTTILASINKIRIFKGR
B2: porcine Galβ1,3GalNAc α2,3 sialyltransferase (protein)
chain: T1 sequence (Q02745 28-343 limits assumed) with R201T

How the values were obtained:
ST3O = target: T1, ST3O; assay: Acceptor specificity of ST3O (Table 4); conditions: for Relative rate (%) ST30: acceptor 0.2 mM
ST3N = target: T2, ST3N; assay: Acceptor specificity of ST3N (Table 4)
rat ST3N = target: T3, rat ST3N; assay: Acceptor specificity of soluble rat ST3N fusion protein (Table 3); conditions: acceptor 0.2 mM; relative to LNT
ST3 = target: T4, ST3; assay: Acceptor specificity of soluble ST3 (AZ3, concentrated COS-1 media); format: biochemical; conditions: for Relative rate (%) ST3: acceptor 0.2 mM
[1] = system: acceptor substrate antifreeze glycoprotein (AFGP); assay: Sialyltransferase activity of purified porcine liver α2,3-0 sialyltransferase; format: biochemical; conditions: after third CDP-hexanolamine agarose column
From the text: FIG. 4 Purification of the α2,3-0 sialyltransferase on CDP-hexanolamine agarose (column III, CDP elution). […] In columns A and B elution of enzyme activity correlated predominantly with 48 kDa and a 45 kDa protein species, respectively (see inset, SDS-PAGE). These two species, form A and form B of the α2,3 sialyltransferase, had specific activities of 8-10 units/mg protein. The 48 kDA and 45 kDA species were blotted to a PVDF membrane and analyzed by NH2 -terminal sequencing.
The enzyme was purified from a porcine liver Triton X-100 extract by affinity chromatography on three successive columns of CDP-hexanolamineagarose. The elution profile from the first and third purification steps are shown in FIG. 3 and FIG. 4, respectively. […] These two peaks were separated by combining the indicated fractions into pools A and B, these two pools were subsequently found to be enriched in two different molecular weight forms of the α2,3-0 sialyltransferase.
The membranes were extracted three times with buffer (Conradt, H. S. et al., in Sialic Acids 1988 Proceedings of the Japanese-German Symposium on Sialic Acids (Schauer and Yamakawa, eds.) pp. 104-105, Verlag Wissenschaft and Bildung, Kiel [1988]) and the extract was passed over a 1.5 l CDP-hexanolamine agarose column (column 1) (16 umol/ml). After washing the column with 3 L buffer B, the column was eluted with a linear gradient of 0.05 to 1.0 M KCL (2.5 l×2.5 l) in buffer B. Fractions containing α2,3 sialyltransferase were combined into two pools A and B, representing the main part and the trailing end of the peak, respectively (see FIG. 3). The pools were dialysed against buffer B and subjected to another round of affinity chromatography on CDP-hexanolamine agarose (columns IIA and IIB). A 150 ml column was used for pool A and a 30 ml column was used for pool B; two preparations from column I (from total of 4 kg liver) were loaded on the same column in step II. […]

Row | Molecule | Relative rate (%) ST30 (ST3O) [%] | Relative rate (%) ST3N (ST3N; acceptor 0.2 mM) [%] | acceptor substrate for ST3 enzyme (in words) (ST3) | also measured
1 | CC(=O)N[C@H]1[C@H](O[C@H]2[C@@H](O)[C@@H](CO)O[C@@H](O[C@H]3[C@H](O)[C@@H](O)C(O)O[C@@H]3CO)[C@@H]2O)O[C@H](CO)[C@@H](O[C@@H]2O[C@@H](C)[C@@H](O)[C@@H](O)[C@@H]2O)[C@@H]1O[C@@H]1O[C@H](CO)[C@H](O)[C@H](O)[C@H]1O (some centres unmarked) [Galβ1,3(Fucα1,4)GlcNAcβ1,3Galβ1,4Glc] | 0 | 0 | – | Relative rate (%) ST3N (ST3N; acceptor 2.0 mM): 0%
2 | CC(=O)N[C@H]1C(O)O[C@H](CO)[C@H](O)[C@@H]1O[C@@H]1O[C@H](CO)[C@H](O)[C@H](O)[C@H]1O (some centres unmarked) [Galβ1,3GalNAc] | 100 | 3 | – | Relative rate (%) ST3N (ST3N; acceptor 2.0 mM): 10%
3 | CC(=O)N[C@H]1[C@H](O[C@H]2[C@@H](O)[C@@H](CO)O[C@@H](O[C@H]3[C@H](O)[C@@H](O)C(O)O[C@@H]3CO)[C@@H]2O)O[C@H](CO)[C@@H](O)[C@@H]1O[C@@H]1O[C@H](CO)[C@H](O)[C@H](O)[C@H]1O (some centres unmarked) [Galβ1,3GlcNAcβ1,3Galβ1,4Glc (LNT), Galβ1,3GlcNAcβ1,3Galβ1,4Glc] | 0.5 | 100 | – | Relative rate (%) ST3N (ST3N; acceptor 2.0 mM): 100%; Relative activity (%) Rat (rat ST3N): 100%
4 | CC(=O)N[C@H]1[C@H](O[C@H]2[C@@H](O)[C@@H](CO)O[C@@H](O[C@H]3[C@H](O)[C@@H](O)C(O)O[C@@H]3CO)[C@@H]2O)O[C@H](CO)[C@@H](O[C@@H]2O[C@H](CO)[C@H](O)[C@H](O)[C@H]2O)[C@@H]1O[C@@H]1O[C@@H](C)[C@@H](O)[C@@H](O)[C@@H]1O (some centres unmarked) [Galβ1,4(Fucα1,3)GlcNAcβ1,3Galβ1,4Glc] | 0 | 0 | – | Relative rate (%) ST3N (ST3N; acceptor 2.0 mM): 0%
5 | CC(=O)N[C@H]1[C@H](O[C@H]2[C@@H](O)[C@@H](CO)O[C@@H](O[C@H]3[C@H](O)[C@@H](O)C(O)O[C@@H]3CO)[C@@H]2O)O[C@H](CO)[C@@H](O[C@@H]2O[C@H](CO)[C@H](O)[C@H](O)[C@H]2O)[C@@H]1O (some centres unmarked) [Galβ1,4GlcNAcβ1,3Galβ1,4Glc (LNnT), Galβ1,4GlcNAcβ1,3Galβ1,4Glc] | 0 | 4 | – | Relative rate (%) ST3N (ST3N; acceptor 2.0 mM): 18%; Relative activity (%) Rat (rat ST3N): 4%
6 | Asialofetuin: glycoprotein acceptor (Galβ1,3GalNAc-Thr/Ser and Galβ1,4GlcNAc-R) | 26 | 18 | sialic acid was incorporated; also recorded: best acceptor | –
7 | GalNAcβ1,4(NeuAcα2-3)Galβ1,4Glcβ1-Cer | 0.3 | 0 | – | Relative rate (%) ST3 (ST3): 1%
8 | GalNAcβ1,4Galβ1,4Glcβ1-Cer [GalNAcβ1,4Galβ1,4Glcβ1-Cer (Asialo-GM2)] | 0.5 | 0 | – | –
9 | Galβ1,3GalNAcβ1,4(NeuAcα2-3)Galβ1,4Glcβ1-Cer | 47 | 0 | also serving as substrates, but to a lesser extent | acceptor substrate for ST30 enzyme (in words) (ST3O): well
10 | Galβ1,3GalNAcβ1,4Galβ1,4Glcβ1-Cer | 88 | 8 | preferred one | acceptor substrate for ST30 enzyme (in words) (ST3O): well; Relative rate (%) ST3 (ST3): 64%
11 | Galβ1,4GlcNAcβ1,3Galβ1,4Glcβ1-Cer [Galβ1,4GlcNAcβ1,3Galβ1,4Glcβ1-Cer (nLc4)] | – | – | also serving as substrates, but to a lesser extent | –
12 | Galβ1,4Glcβ1-Cer [Galβ1,4Glcβ1-Cer (LacCer)] | 0.1 | 0 | low but significant level incorporation | –
13 | NeuAcα2,3Galβ1,4Glcβ1-Cer [NeuAcα2,3Galβ1,4Glcβ1-Cer (GM3)] | 0.1 | 0 | – | –
14 | intact fetuin: glycoprotein examined as acceptor | – | – | not any significant amount of sialic acid incorporated | –
15 | α1 -acid glycoprotein: intact glycoprotein examined as acceptor | – | – | not any significant amount of sialic acid incorporated | –
16 | B1 | – | – | – | specific activity [1]: 8-10 units/mg protein
17 | B2 | – | – | – | specific activity [1]: 8-10 units/mg protein
